Data set [1] can be described thus: Cytotoxicity against human Raji cells assessed as cell viability at 16 nmol by trypan blue assay.
Data set [2] is described as follows: Cytotoxicity against human Raji cells assessed as cell viability at 0.32 nmol by trypan blue assay.
Data set [3] can be described thus: Cytotoxicity against human Raji cells assessed as cell viability at 32 nmol by trypan blue assay.
The nature of data set [4]: Cytotoxicity against human Raji cells assessed as cell viability at 3.2 nmol by trypan blue assay.

For the compound `CC(C)=CCc1cc(/C=C/C=O)ccc1O`, in data set [1] (Raji cells), the viability at 16 nmol was greater than 80%. Further, in data set [2] (Raji cells), the viability at 0.32 nmol was greater than 80%. Also, the viability at 32 nmol in data set [3] (Raji cells) stood at 60%. In addition, the viability at 3.2 nmol in data set [4] (Raji cells) is greater than 80%.

As for `OC/C=C/c1ccc2c(c1)OCO2`, the viability at 16 nmol in data set [1] (Raji cells) is greater than 80%. Besides, the viability at 0.32 nmol in data set [2] (Raji cells) is greater than 80%. In addition, the viability at 32 nmol in data set [3] (Raji cells) was found to be 70%. Besides, the viability at 3.2 nmol in data set [4] (Raji cells) is greater than 80%.

On to `COc1cc(=O)n(C)c2c(OC)cccc12`, for which the viability at 16 nmol in data set [1] (Raji cells) was greater than 80%. Also, the viability at 0.32 nmol in data set [2] (Raji cells) was greater than 80%. For the same compound, the viability at 32 nmol in data set [3] (Raji cells) was 60%. In data set [4] (Raji cells), the viability at 3.2 nmol was greater than 80%.

Turning to `COc1cc2ccc(=O)oc2c2c1OC(C)(C)C=C2`, the viability at 16 nmol in data set [1] (Raji cells) was greater than 80%. Besides, the viability at 0.32 nmol in data set [2] (Raji cells) is greater than 80%. The viability at 32 nmol in data set [3] (Raji cells) stood at 60%. Moreover, in data set [4] (Raji cells), the viability at 3.2 nmol is greater than 80%.

In the case of `COc1cc(/C=C/C(=O)O)ccc1OCC=C(C)C` [BOROPINIC ACID], in data set [1] (Raji cells), the viability at 16 nmol is greater than 80%. For the same compound, the viability at 0.32 nmol in data set [2] (Raji cells) was greater than 80%. Moreover, the viability at 32 nmol in data set [3] (Raji cells) was 70%. Further, the viability at 3.2 nmol in data set [4] (Raji cells) is greater than 80%.

With `O=C(O)/C=C/c1ccc(O)cc1` [COUMARIC ACID], in data set [1] (Raji cells), the viability at 16 nmol was greater than 80%. Also, the viability at 0.32 nmol in data set [2] (Raji cells) was greater than 80%. Further, in data set [3] (Raji cells), the viability at 32 nmol turned out to be 60%. Besides, in data set [4] (Raji cells), the viability at 3.2 nmol was greater than 80%.

Turning to `COc1c2ccccc2nc2occc12` [DICTAMNINE], the viability at 16 nmol in data set [1] (raji) was greater than 80%. Moreover, the viability at 0.32 nmol in data set [2] (raji) was greater than 80%. Besides, in data set [3] (raji), the viability at 32 nmol worked out at 60%. Besides, the viability at 3.2 nmol in data set [4] (raji) was greater than 80%.

In the case of `COc1ccc2c(OC)c3ccoc3nc2c1` [EVOLITRINE], in data set [1] (Raji cells), the viability at 16 nmol is greater than 80%. In addition, the viability at 0.32 nmol in data set [2] (Raji cells) was greater than 80%. Moreover, the viability at 32 nmol in data set [3] (Raji cells) stood at 60%. Moreover, in data set [4] (Raji cells), the viability at 3.2 nmol was greater than 80%.

On to `COc1ccc2c(OC)c(CC=C(C)C)c(=O)[nH]c2c1OC` [PRESKIMMIANINE], for which, in data set [1] (Raji cells), the viability at 16 nmol was greater than 80%. In data set [2] (Raji cells), the viability at 0.32 nmol was greater than 80%. Also, the viability at 32 nmol in data set [3] (Raji cells) amounted to 60%. In addition, the viability at 3.2 nmol in data set [4] (Raji cells) is greater than 80%.

Consider `COc1cc(C=O)cc(OC)c1O` [SYRINGALDEHYDE], for which the viability at 16 nmol in data set [1] (Raji cells) was greater than 80%. Further, the viability at 0.32 nmol in data set [2] (Raji cells) is greater than 80%. Further, in data set [3] (Raji cells), the viability at 32 nmol came out at 60%. In addition, the viability at 3.2 nmol in data set [4] (Raji cells) was greater than 80%.

A word on the viability: it is the share of living cells, or the viability signal relative to a control.

The values above are taken from ChEMBL document CHEMBL1155600, “Constituents of Boronia pinnata” (J Nat Prod, 2000).
